Patent US20090211893A1, “Photo-Activatable Amino Acids” (priority 2005, published 2009)

Tests used:
caveolin-1 = experiment: Photo-crosslinking of transfected caveolin-1 in COS7 cells; type: cell-based, human; details: irradiated samples, COS7 cells in LM-4
Description: FIG. 3: Photo-crosslinking induced by photo-amino acids. COS7 cells (panels a,b) or HeLa cells (panel c) were grown in LM-4 (panel a) or LM-2 (panels b,c) in the absence or presence of L-photo-Leu (pL), L-photo-Met (pM) or DL-photo-Ile (pl) or mixtures of them (pLM or PLMI) followed by UV irradiation (+) or no irradiation (−). cross-linked products formed after UV-irradiation were detected by SDS-PAGE followed by western blotting using (a) anti-caveolin 1 to detect overexpressed caveolin 1, (b) anti-stomatin to detect endogenous stomatin or (c) anti-EEA1 to detect endogenous EEA1. In panel b, lanes 8 and 9 show cross-linking with two different concentrations of the chemical cross-linker DSS for comparison of cross-linking efficiency. In panel c, photocrosslinking of endogenous EEA1 by photo-Leu and photo-Met is compared to chemical cross-linking using DSS or para-formaldehyde (PFA) as indicated. Note that chemical cross-linking leads to protein aggregates that are not resolvable by SDS-PAGE while photocrosslinking identifies more than six discrete cross-linked bands.
COS7 (monkey kidney) cells were grown in DMEM high glucose (Gibco no. 11995; with L-glutamine and Na-pyruvate)+10% FCS. Typically, 3 cm2 of cells are needed for a cross-linking experiment with detection by western blotting. At about 70%, medium was replaced by LM-4 (DMEM lacking Met, Leu, Ile and Val and phenol red, supplemented with 5% dialyzed FCS) or by LM-2 (LM-4+1 mM of each Ile and Val). Photo-amino acids were added to a final concentration of 4 mM photo-Leu and photo-Ile, 1.7 mM photo-Met and cells were cultivated for further 22 h followed by washing with PBS and UV-irradiation using a 200 W high pressure mercury lamp (Oriel Photomax) with a glass filter to remove wavelengths shorter 310 nm. The samples were placed at a distance of 38 cm to the light source, corresponding to a illuminated area of 105 mm diameter. […] We used an irradiation time 1-3 min for experiments with living cells. […] Lysis of cells, SDS-PAGE and western blotting were done as described^33. […]

COS7 cells [1] = experiment: Protein biosynthesis by incorporation of [3H]Phe; type: cell-based, monkey
Source text: (§1) Unnatural amino acids frequently are toxic to cells. To find out if this is the case for photo-amino acids of the invention, we monitored in COS7 cells protein biosynthesis by incorporation of [^3H]Phe and viability by trypan blue exclusion of cells grown in the presence or absence of the photo-amino acids photo-Leu, photo-Met and photo-Ile. Due to the lack of two essential amino acids in the growth medium, protein biosynthesis is reduced to about 65% of that in a full growth medium. […] Although cells grew slightly slower than in full growth medium, viability (Table 2) and cell morphology (not shown) were unaffected.

Insig-1 and PGRMC1 = experiment: Photo-crosslinking of Insig-1 and PGRMC1 with immunoprecipitation and western blotting; type: cell-based, human; details: COS7 cells, UV-irradiated, IP anti-HA, blot anti-myc
Source text: Cells were UV-irradiated or not irradiated as indicted, lysed and subjected to immunoprecipitation (IP) with anti-HA or anti-myc antibodies as indicated. Immunoprecipitated proteins were separated by SDS-PAGE and probed (WB) for the presence of cross-links with anti-myc antibody or anti-HA antibody as indicated. The small difference in apparent molecular weight of the cross-link is due to different percentage of SDS-PAGE gels used. The presence of uncrosslinked Insig-1 in the left lanes indicates non-covalent co-immunoprecipitation. The strong band in lanes 3 and 4 (IgG-HC) is crossreacting IgG heavy chain.
COS7 (monkey kidney) cells were grown in DMEM high glucose (Gibco no. 11995; with L-glutamine and Na-pyruvate)+10% FCS. […]
The methods of the invention have been applied to the study of protein-protein interactions between membrane proteins. […] To detect the cross-linked proteins, detergent extracts were immunoprecipitated for PGRMC1 with anti-HA antibody and precipitates analyzed for Insig-1 by western blotting with anti-myc antibody. If cells were grown in the absence of photo-Met, only a small amount of co-immunoprecipitated Insig-1, but no cross-linked band was detected (FIG. 6a, lane 2). […] An identical band was detected using the inverted order of detection, i.e. immunoprecipitation with anti-myc followed by blotting with anti-HA antibody (FIG. 6a, lane 3). […]

COS7 cells [2] = experiment: Cell viability by trypan blue exclusion; type: cell-based, monkey; details: LM-2 medium supplement; percent ± SD of viable cells (n = 6)
Source text: as §1

For `CC1(CCC(N)C(=O)O)N=N1` [photo-Met, L-2-amino-5,5′-azi-hexanoic acid], the “formation of covalent caveolin dimers upon UV irradiation” value (caveolin-1) was “significant formation of a cross-linked dimer”, the Protein synthesis (COS7 cells [1]; LM-2 medium supplement, value in full DMEM medium set to 100, average ± SD of triplicate) was 76.0 ± 6.4 and the “effect on protein biosynthesis” value (COS7 cells [1]; addition to LM-2 medium) was “increased protein biosynthesis”. For the same compound, the “Insig-1×PGRMC1 cross-linked band” value (Insig-1 and PGRMC1) was “a strong band appeared” and the Cell viability (COS7 cells [2]) was 99.8 ± 0.1%.
